Assay results from publication PMC11793850, “Insights into Molecular Interactions and Biological Effect of Natural Stilbenoids at the TRPA1 Ion Channel” (Chemmedchem, 2024).

Columns and labels:
[1] = target: T1, hTRPA1 (Homo sapiens, UniProt O75762); assay: FLIPR calcium assay (agonism) in HEK293 cells with inducible hTRPA1; non-expressing HEK293 control; type: cell-based
T1 construct: gene TRPA1

[2] = target: T2, rTRPA1 (Rattus norvegicus, UniProt Q6RI86); assay: FLIPR calcium assay in HEK293 cells with inducible rTRPA1 ([…] of maximal AITC response at […]; desensitization to AITC); type: cell-based
T2 construct: gene Trpa1
T2 sequence (Q6RI86 whole entry): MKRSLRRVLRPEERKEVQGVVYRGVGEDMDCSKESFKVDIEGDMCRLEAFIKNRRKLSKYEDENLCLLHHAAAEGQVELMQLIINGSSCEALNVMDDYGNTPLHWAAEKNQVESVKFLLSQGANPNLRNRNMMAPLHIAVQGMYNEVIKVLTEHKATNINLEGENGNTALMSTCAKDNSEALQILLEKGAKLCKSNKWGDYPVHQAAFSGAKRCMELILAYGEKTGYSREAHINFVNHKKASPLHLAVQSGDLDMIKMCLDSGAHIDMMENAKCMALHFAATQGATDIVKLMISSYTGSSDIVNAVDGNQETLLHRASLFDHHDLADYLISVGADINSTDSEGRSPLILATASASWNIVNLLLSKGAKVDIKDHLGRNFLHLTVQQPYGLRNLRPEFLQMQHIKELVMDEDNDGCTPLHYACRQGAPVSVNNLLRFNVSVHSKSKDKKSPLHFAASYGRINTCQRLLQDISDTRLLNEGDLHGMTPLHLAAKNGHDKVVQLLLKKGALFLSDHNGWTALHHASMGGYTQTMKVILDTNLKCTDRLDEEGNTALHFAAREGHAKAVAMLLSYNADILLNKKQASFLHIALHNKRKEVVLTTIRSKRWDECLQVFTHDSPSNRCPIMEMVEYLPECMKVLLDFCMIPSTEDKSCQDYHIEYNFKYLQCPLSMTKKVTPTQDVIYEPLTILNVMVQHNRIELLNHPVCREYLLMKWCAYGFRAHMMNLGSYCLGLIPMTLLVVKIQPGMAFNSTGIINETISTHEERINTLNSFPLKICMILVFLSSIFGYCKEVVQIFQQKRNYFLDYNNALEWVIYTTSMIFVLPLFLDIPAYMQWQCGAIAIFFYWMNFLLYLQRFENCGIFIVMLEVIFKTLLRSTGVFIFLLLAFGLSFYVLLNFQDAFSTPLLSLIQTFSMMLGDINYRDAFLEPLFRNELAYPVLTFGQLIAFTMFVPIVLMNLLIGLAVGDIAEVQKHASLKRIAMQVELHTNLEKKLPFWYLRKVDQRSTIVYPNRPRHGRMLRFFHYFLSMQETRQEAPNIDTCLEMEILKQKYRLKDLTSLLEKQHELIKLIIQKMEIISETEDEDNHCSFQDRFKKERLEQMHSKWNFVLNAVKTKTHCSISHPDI

T1 sequence (O75762 whole entry): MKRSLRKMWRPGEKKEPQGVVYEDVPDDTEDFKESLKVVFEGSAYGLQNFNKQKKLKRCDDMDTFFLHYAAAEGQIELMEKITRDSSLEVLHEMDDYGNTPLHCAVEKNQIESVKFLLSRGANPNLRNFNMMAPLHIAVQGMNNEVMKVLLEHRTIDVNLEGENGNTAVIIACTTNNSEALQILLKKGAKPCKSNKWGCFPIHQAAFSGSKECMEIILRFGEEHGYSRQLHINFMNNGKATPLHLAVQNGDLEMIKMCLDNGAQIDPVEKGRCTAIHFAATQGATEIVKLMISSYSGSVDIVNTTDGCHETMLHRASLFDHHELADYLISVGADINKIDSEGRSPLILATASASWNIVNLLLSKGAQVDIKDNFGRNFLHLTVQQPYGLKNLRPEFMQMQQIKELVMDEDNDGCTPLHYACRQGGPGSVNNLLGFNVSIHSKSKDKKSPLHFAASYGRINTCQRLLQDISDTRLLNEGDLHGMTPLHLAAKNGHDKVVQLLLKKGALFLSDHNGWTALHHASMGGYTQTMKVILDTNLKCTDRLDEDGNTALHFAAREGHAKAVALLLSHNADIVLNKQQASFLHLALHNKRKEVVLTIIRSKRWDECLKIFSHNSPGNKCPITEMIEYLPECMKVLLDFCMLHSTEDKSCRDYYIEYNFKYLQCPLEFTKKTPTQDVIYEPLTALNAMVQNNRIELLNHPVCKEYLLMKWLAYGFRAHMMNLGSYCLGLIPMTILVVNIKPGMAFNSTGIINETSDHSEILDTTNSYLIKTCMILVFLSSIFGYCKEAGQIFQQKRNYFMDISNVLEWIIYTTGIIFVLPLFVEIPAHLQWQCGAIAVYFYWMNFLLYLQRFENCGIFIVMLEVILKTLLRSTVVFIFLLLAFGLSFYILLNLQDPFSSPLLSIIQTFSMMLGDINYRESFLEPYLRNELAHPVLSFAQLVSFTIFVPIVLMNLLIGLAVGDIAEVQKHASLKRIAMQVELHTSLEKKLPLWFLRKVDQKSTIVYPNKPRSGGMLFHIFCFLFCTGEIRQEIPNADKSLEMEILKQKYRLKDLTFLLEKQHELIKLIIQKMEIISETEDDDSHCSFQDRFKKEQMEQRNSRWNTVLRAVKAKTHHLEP

EC50 [1] [µM]	Structure (SMILES)	Emax at 100 µM [2] [%]
12 ± 1.1	Oc1cc(O)cc(/C=C/c2ccccc2)c1 [Pinosylvin]	–
11.2 ± 0.8	COc1cc(O)cc(/C=C/c2ccccc2)c1 [pinosylvin monomethyl ether]	–

Structure (SMILES)	EC50 [1] [µM]	Emax at 100 µM [2] [%]
Oc1ccc(/C=C/c2cc(O)cc(O)c2)cc1 [Resveratrol]	3.2 ± 0.2	35
